Measurements reported in PMC8457330 (Journal of medicinal chemistry, 2021).
pEC50, pIC50: −log10 of the molar value.

Columns and labels:
SARS-CoV = settings: read-out: SARS-CoV antiviral EC50; VeroE6 cells; cited from earlier work
SARS-CoV-2 = assay: Antiviral activity, quantitative VeroE6 cell-based assay with RNA-qPCR; settings: VeroE6 cells, EC50 ratio versus compound 1
SARS-CoV 3CLpro = SARS-CoV 3CLpro (Severe acute respiratory syndrome coronavirus, UniProt P0C6X7); assay: biochemical
SARS-CoV-2 3CLpro = SARS-CoV-2 3CLpro (Severe acute respiratory syndrome coronavirus 2, UniProt P0DTD1); type: biochemical

| SMILES | fold reduction in antiviral activity compared to 1 (SARS-CoV-2) [fold] | pIC50 (SARS-CoV 3CLpro) | also measured |
| --- | --- | --- | --- |
| O=C(Oc1cncc(Cl)c1)c1cccc2[nH]ccc12 [Compound 1, 5-chloropyridin-3-yl 1H-indole-4-carboxylate] |  |  | pEC50 (SARS-CoV): 5.16 |
| O=C(Oc1cncc(Cl)c1)c1cccc2c1CCN2 [Compound 2, 5-chloropyridin-3-yl indoline-4-carboxylate] | 5 | 6.72 |  |
| O=C(Oc1cncc(Cl)c1)c1ccc2[nH]ccc2c1 [Compound 7a, 5-chloropyridin-3-yl 1H-indole-5-carboxylate] |  | 6.39 |  |
| C=CCn1ccc2c(C(=O)Oc3cncc(Cl)c3)cccc21 [Compound 7d, 5-chloropyridin-3-yl 1-allyl-1H-indole-4-carboxylate] | ~5 |  | fold improvement in inhibitory potency over 1 (SARS-CoV-2 3CLpro; versus compound 1): over 5 fold |
| C=CCc1cn(CC=C)c2cccc(C(=O)Oc3cncc(Cl)c3)c12 [Compound 7e, 5-chloropyridin-3-yl 1,3-diallyl-1H-indole-4-carboxylate] |  |  | fold reduction in enzyme inhibitory activity (SARS-CoV-2 3CLpro; bis-allyl 7e versus 7d): 5 fold |
